The source of these data is US20200054651A1, “COMPOSITIONS AND METHODS FOR MODULATING PPP2R1A” (The Regents of the University of California, priority 2017, published 2020).

Molecules are shown by their SMILES.

The subject of one test is siPPP2R1A 231MFP cells. In words: Proliferation of siPPP2R1A knockdown 231MFP cells. The class given is cell-based. The note with it: 48 h after 48 h siRNA transfection. An excerpt: PPP2R1A was transiently knocked down with siRNA using previously described methods (Benjamin et al., 2014). siRNA for a scrambled RNA oligonucleotide control and pooled RNA oligonucleotides targeting PPP2R1A were purchased from Dharmacon.

Test [1] deals with phosphorylated AKT (p-AKT). In words: Western blot of phosphorylated AKT in 231MFP cells. The class given is cell-based. The procedure: Antibodies to vinculin, phospho-Akt (Ser473), and Akt were obtained from a commercial source and proteomes were blotted per recommended manufacturer's' procedure. Cells were lysed in lysis buffer (containing the following: 20 mM Tris pH 7.5, 150 mM NaCl, 1 mM EDTA, 1 mM EGTA, 1% Triton X-100, 2.5 mM pyrophosphate, 50 mM NaF, 5 mM (3-glycero-phosphate, 1 mM Na3VO4, 50 nM calyculin A, and protease inhibitors). Lysate was incubated on a rotator at 4° C. for 30 min, and insoluble material was removed via centrifugation at a max speed for 10 minutes. Proteins were resolved by SDS/PAGE and transferred to nitrocellulose membranes using the iBlot system. Blots were blocked with 5% nonfat milk in Tris-buffered saline containing Tween 20 (TBST) solution for 1 hour at room temperature, washed in TBST, and probed with primary antibody diluted in a manufacturer recommended diluent overnight at 4° C. Following washes with TBST, the blots were incubated in the dark with secondary antibodies purchased from Rockland and used at 1:10 000 dilution in 5% nonfat milk in TBST at room temperature. Blots were visualized using an Odyssey Li-Cor scanner after additional washes.

Test [2] deals with 231MFP breast cancer cells. The test is described as follows: 231MFP cell proliferation (Hoechst staining). The class given is cell-based. Particulars: 48 h; for cell proliferation: 231MFP.
The target of test [3] is T1, pure human PPP2R1A protein (Homo sapiens, UniProt P30153).
T1 construct: purchased Origene
T1 sequence (P30153 whole entry): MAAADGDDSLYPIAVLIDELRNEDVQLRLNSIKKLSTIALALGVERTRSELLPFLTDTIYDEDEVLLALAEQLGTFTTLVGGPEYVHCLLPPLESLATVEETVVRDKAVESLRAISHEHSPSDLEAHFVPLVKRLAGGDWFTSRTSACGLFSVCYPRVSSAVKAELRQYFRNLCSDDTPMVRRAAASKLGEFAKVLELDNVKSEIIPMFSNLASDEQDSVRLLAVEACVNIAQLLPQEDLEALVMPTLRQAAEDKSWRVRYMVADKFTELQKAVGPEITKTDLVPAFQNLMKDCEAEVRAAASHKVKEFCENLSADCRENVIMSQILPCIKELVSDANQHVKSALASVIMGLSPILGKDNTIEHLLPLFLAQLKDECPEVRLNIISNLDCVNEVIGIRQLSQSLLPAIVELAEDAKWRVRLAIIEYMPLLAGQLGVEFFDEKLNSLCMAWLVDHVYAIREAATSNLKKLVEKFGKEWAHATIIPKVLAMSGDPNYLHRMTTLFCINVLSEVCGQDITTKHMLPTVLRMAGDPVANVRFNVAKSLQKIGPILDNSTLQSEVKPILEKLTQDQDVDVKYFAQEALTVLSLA
In words: Gel-based ABPP, competition against IAyne labeling. The class given is binding. The note with it: for competition against IAyne labeling of pure human PPP2R1A: 30 min pre-incubation; for IC50: 30 min at 37° C. pre-treatment, IAyne labeling. The procedure: Gel-based ABPP methods were performed using the methods described in “Chem Biol 22(10), 1394-1405 (2015)” by Medina-Cleghorn D., et al. Recombinant pure human proteins were purchased from Origene. Pure proteins were pre-treated with DMSO, Withaferin A, or acrylamide or chloroacetamide compounds (e.g., DKM 2-90 or JNS 1-40) for 30 minutes at 37° C. in an incubation volume of PBS (50 μL), and were subsequently treated with IAyne (10 μM final concentration) for 30 minutes at room temperature. CuAAC was performed to append rhodamine-azide onto IAyne probe-labeled proteins. The samples were separated by SDS/PAGE and scanned using a ChemiDoc MP. Inhibition of target labeling was assessed by densitometry using ImageStudio Light software.

On to `CC1=C(CO)C(=O)O[C@@H]([C@@H](C)[C@H]2CC[C@H]3[C@@H]4C[C@H]5O[C@]56[C@@H](O)C=CC(=O)[C@]6(C)[C@H]4CC[C@]23C)C1` [withaferin A, reference compound], for which, in the test with siPPP2R1A 231MFP cells (10 μM), the “anti-proliferative effect in siPPP2R1A versus siControl cells” value is on record as “significantly attenuated the anti-proliferative effects”. Also, in test [1] (10 μM, 4 h), the “phosphorylated AKT levels” value is given as “reduced phosphorylated AKT levels”. Also, the “phosphorylated AKT levels with cantharidin co-treatment” value in test [1] (10 μM, 4 h, co-treatment with cantharidin (10 μM, 4 h)) is on record as “rescued”. For the same compound, the cell proliferation entry in test [2] (10 μM) is “impairs”. Moreover, the EC50 in test [2] (serum-containing media, Hoechst staining, read-out: 50% effective concentration (EC50), impairment of 231MFP cell proliferation) worked out at 7.5 µM. Moreover, the “competition against IAyne labeling of pure human PPP2R1A” value in test [3] (gel-based ABPP) is listed as “full competition”.
Take `O=C(CCl)N(Cc1ccccc1)c1ccc2c(c1)OCCO2` [JNS 1-40, N-benzyl-2-chloro-N-(2,3-dihydrobenzo[b][1,4]dioxin-6-yl)acetamide]: the “anti-proliferative effect in siPPP2R1A versus siControl cells” value in the test with siPPP2R1A 231MFP cells (100 μM) was “attenuated”. Also, in test [1] (100 μM, 5 h), the “phosphorylated AKT levels” value is on record as “significantly reduced phosphorylated AKT levels”. In addition, the cell proliferation entry in test [2] (100 μM) is “impaired”. Also, the IC50 in test [3] was determined as 0.63 µM. For the same compound, the “improved potency towards PPP2R1A compared to DKM 2-90” value in test [3] (gel-based ABPP) turned out to be 16 fold.
Turning to `O=C(CCl)Nc1ccc2c(c1)OCCO2` [DKM 2-90, 2-Chloro-N-(2,3-dihydrobenzo[β][1,4]dioxin-6-yl)acetamide], in the test with siPPP2R1A 231MFP cells (100 μM), the “anti-proliferative effect in siPPP2R1A versus siControl cells” value is “attenuation”. Also, the “phosphorylated AKT levels” value in test [1] (100 μM, 5 h) is listed as “inhibit AKT signaling”. The cell proliferation result in test [2] (100 μM) is “lead compounds”. The IC50 in test [3] came to 10 µM. Moreover, in test [3] (gel-based ABPP), the “competition against IAyne labeling of pure human PPP2R1A” value was “confirming the competition”.
